From ChEMBL document CHEMBL1201862, “PubChem BioAssay data set” (2004)
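These data come from cells grown in 96-well plates and exposed to compound for 48 hours at five concentrations. The concentration for 50% growth inhibition is given as GI50.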 Activity calls are given as the source filed them. Rule as the data show it: active = GI50 up to about 1.1 µM and inactive = higher.

What was measured:
Assay in all cases: growth of human tumour cells (NCI), 48 h
[1] = tested on: CAKI-1
[2] = tested on: DMS-273
[3] = tested on: EKVX
[4] = tested on: HCT-116
[5] = tested on: HT-29
[6] = tested on: IGROV-1
[7] = tested on: KM12
[8] = tested on: NCI-H23
[9] = tested on: NCI-H522
[10] = tested on: SF-295
[11] = tested on: SK-MEL-28
[12] = tested on: SW-620
[13] = tested on: TK-10
[14] = tested on: UACC-62
[15] = tested on: OVCAR-4
[16] = tested on: A498
[17] = tested on: BT-549
[18] = tested on: DU-145
[19] = tested on: PC-3
[20] = tested on: T47D

Structure (SMILES) | GI50 [1] | GI50 [2] | GI50 [3] | GI50 [4] | GI50 [5] | GI50 [6] | GI50 [7] | GI50 [8] | GI50 [9] | GI50 [10] | GI50 [11] | GI50 [12] | GI50 [13] | GI50 [14] | GI50 [15] | GI50 [16] | GI50 [17] | GI50 [18] | GI50 [19] | GI50 [20]
O=CC1=CCCN(CCc2c[nH]c3ccccc23)C1 | 75.5 µM (inactive) | 46.2 µM (inactive) | 84.7 µM (inactive) | 28.2 µM (inactive) | 56.4 µM (inactive) | 86.5 µM (inactive) | 56.9 µM (inactive) | 47.6 µM (inactive) | 69.3 µM (inactive) | 57.3 µM (inactive) | 11.9 µM (inactive) | 17.6 µM (inactive) | 76.6 µM (inactive) | 58.3 µM (inactive) |  |  |  |  |  | 
CCOc1ccc(/N=N/c2c(-c3ccccc3)nn(C(=O)CC(=O)Nc3ccccc3Cl)c2-c2ccccc2)cc1 | 23.4 µM (inactive) | 18.3 µM (inactive) | 44 µM (inactive) | 35.6 µM (inactive) | 33.7 µM (inactive) | > 100 µM (inactive) | 46.1 µM (inactive) | 56.9 µM (inactive) | 78 µM (inactive) | 68.5 µM (inactive) | 27.7 µM (inactive) | > 100 µM (inactive) | 74.6 µM (inactive) | 77.1 µM (inactive) | 47.4 µM (inactive) |  |  |  |  | 
O=C1C(=O)N(C(=O)c2ccc(Cl)c(Cl)c2)c2ccccc21 |  | > 100 µM (inactive) | > 100 µM (inactive) |  | > 100 µM (inactive) | > 100 µM (inactive) | > 100 µM (inactive) | > 100 µM (inactive) |  | > 100 µM (inactive) | > 100 µM (inactive) | > 100 µM (inactive) | > 100 µM (inactive) | > 100 µM (inactive) | > 100 µM (inactive) |  |  |  |  | 
CCCCC(/C=N/NC(=N)N)CC.Cc1cc(O)c(C(C)C)cc1S(=O)(=O)O |  | 38 µM (inactive) | 30.8 µM (inactive) | 43.3 µM (inactive) |  | 92.9 µM (inactive) | 52.4 µM (inactive) | 35 µM (inactive) | > 100 µM (inactive) | 42.5 µM (inactive) | 40.6 µM (inactive) | 27 µM (inactive) | 61.7 µM (inactive) | 84.1 µM (inactive) |  |  |  |  |  | 
N=C1N(c2ccccc2)C(=O)C23CCCC2C13N1CCOCC1 (stereo unspecified) | > 100 µM (inactive) | > 100 µM (inactive) | > 100 µM (inactive) | > 100 µM (inactive) | > 100 µM (inactive) | > 100 µM (inactive) | > 100 µM (inactive) | > 100 µM (inactive) | > 100 µM (inactive) | > 100 µM (inactive) | > 100 µM (inactive) | > 100 µM (inactive) |  | > 100 µM (inactive) | > 100 µM (inactive) |  |  |  |  | 
CC(C)(C)CC(C)(C)c1cc2c(O)c(c1)Cc1cc(C(C)(C)CC(C)(C)C)cc(c1O)Cc1cc(C(C)(C)CC(C)(C)C)cc(c1O)Cc1cc(C(C)(C)CC(C)(C)C)cc(c1O)C2 |  | > 100 µM (inactive) | > 100 µM (inactive) | > 100 µM (inactive) | > 100 µM (inactive) | > 100 µM (inactive) | > 100 µM (inactive) | > 100 µM (inactive) | > 100 µM (inactive) | > 100 µM (inactive) | > 100 µM (inactive) | > 100 µM (inactive) | > 100 µM (inactive) | > 100 µM (inactive) | > 100 µM (inactive) |  |  |  |  | 
COC(C)(C)OCCN1CCN(CCN2C3=C(C=C(C(C)=O)C3)Sc3ccccc32)CC1 | 19.2 µM (inactive) |  | 42.1 µM (inactive) | 18 µM (inactive) | 18 µM (inactive) | 20 µM (inactive) | 16.7 µM (inactive) | 27.2 µM (inactive) | 17.5 µM (inactive) | 19.5 µM (inactive) | 16.4 µM (inactive) | 17.5 µM (inactive) | 19.2 µM (inactive) | 15.3 µM (inactive) | 28.6 µM (inactive) | 17.6 µM (inactive) | 21.6 µM (inactive) | 21.8 µM (inactive) | 24.8 µM (inactive) | 23.9 µM (inactive)
NCCSc1nc(-c2ccccc2)c(-c2ccccc2)o1 | > 100 µM (inactive) |  | > 100 µM (inactive) | 37.1 µM (inactive) | 31.7 µM (inactive) | 71.4 µM (inactive) | > 100 µM (inactive) | 17.7 µM (inactive) | 29.6 µM (inactive) | > 100 µM (inactive) | > 100 µM (inactive) | > 100 µM (inactive) | 15.3 µM (inactive) | > 100 µM (inactive) | 46.7 µM (inactive) | > 100 µM (inactive) | > 100 µM (inactive) | > 100 µM (inactive) | > 100 µM (inactive) | 25.2 µM (inactive)
O=C(Nc1ccccc1)c1cc2cc(CCl)ccc2oc1=O | > 100 µM (inactive) |  | > 100 µM (inactive) | > 100 µM (inactive) | 8.57 µM (inactive) | > 100 µM (inactive) | > 100 µM (inactive) | 16.5 µM (inactive) | 70.3 µM (inactive) | 45.5 µM (inactive) | > 100 µM (inactive) | > 100 µM (inactive) | 39.8 µM (inactive) | 16.6 µM (inactive) | > 100 µM (inactive) | 13 µM (inactive) | > 100 µM (inactive) | > 100 µM (inactive) | > 100 µM (inactive) | > 100 µM (inactive)
O=C(Nc1ccc(Cl)cc1Cl)C1C(=O)OC2(CCCCC2)OC1=O | 4.78 µM (inactive) |  | 11.9 µM (inactive) | 6.08 µM (inactive) | 11.5 µM (inactive) | 5.98 µM (inactive) | 6.43 µM (inactive) | 4.4 µM (inactive) | 12 µM (inactive) | 2.92 µM (inactive) | 5.77 µM (inactive) | 5.52 µM (inactive) | 14.1 µM (inactive) | 11 µM (inactive) | 9.18 µM (inactive) | 12.8 µM (inactive) | 10.7 µM (inactive) | 10.5 µM (inactive) | 3.45 µM (inactive) | 12.5 µM (inactive)
O=C(O)C(Cc1c[nH]c2ccccc12)C(=O)NO (stereo unspecified) | > 100 µM (inactive) |  | 14.2 µM (inactive) | > 100 µM (inactive) | > 100 µM (inactive) | > 100 µM (inactive) | > 100 µM (inactive) | > 100 µM (inactive) | > 100 µM (inactive) | > 100 µM (inactive) | > 100 µM (inactive) | 95.5 µM (inactive) | > 100 µM (inactive) | > 100 µM (inactive) | > 100 µM (inactive) | > 100 µM (inactive) | > 100 µM (inactive) | > 100 µM (inactive) | 64.1 µM (inactive) | > 100 µM (inactive)
COc1ccc2cc(CNCCOCCOCCNCc3ccc4cc(OC)ccc4c3)ccc2c1 | 1.61 µM (inactive) |  | 1.57 µM (inactive) | 1.23 µM (inactive) | 0.192 µM (active) | 1.63 µM (inactive) | 0.881 µM (active) | 1.5 µM (inactive) | 1.54 µM (inactive) | 1.17 µM (inactive) | 0.869 µM (active) | 0.348 µM (active) | 1.54 µM (inactive) | 1.78 µM (inactive) | 1.92 µM (inactive) | 1.68 µM (inactive) | 1.89 µM (inactive) | 1.6 µM (inactive) | 1.54 µM (inactive) | 1.06 µM (active)
CC(CS(=O)(=O)Cc1ccccc1)C(N)=O (stereo unspecified) | > 100 µM (inactive) |  | > 100 µM (inactive) | > 100 µM (inactive) | > 100 µM (inactive) | > 100 µM (inactive) | > 100 µM (inactive) | > 100 µM (inactive) | > 100 µM (inactive) | > 100 µM (inactive) | > 100 µM (inactive) | > 100 µM (inactive) | > 100 µM (inactive) | > 100 µM (inactive) | > 100 µM (inactive) | > 100 µM (inactive) | > 100 µM (inactive) | > 100 µM (inactive) | > 100 µM (inactive) | > 100 µM (inactive)
CCCCN(CCCC)C1(c2cc3ccccc3s2)CCCCC1.[O-][Cl+3]([O-])([O-])O | 18.7 µM (inactive) |  | 21.1 µM (inactive) | 10.8 µM (inactive) | 13.1 µM (inactive) | 15.5 µM (inactive) | 16 µM (inactive) | 15.5 µM (inactive) | 12.6 µM (inactive) | 13.2 µM (inactive) | 18.4 µM (inactive) | 15 µM (inactive) | 17.3 µM (inactive) | 15.6 µM (inactive) | 15.4 µM (inactive) | 19.3 µM (inactive) | 19.9 µM (inactive) | 16.3 µM (inactive) | 17.9 µM (inactive) | 16.2 µM (inactive)
CC(=O)Nc1ccc(-c2nc3ccccc3s2)cc1Br | 25.5 µM (inactive) |  | 10.5 µM (inactive) | 20.5 µM (inactive) | > 63.7 µM (inactive) | 0.0124 µM (active) | > 100 µM (inactive) | 27.4 µM (inactive) | > 72.3 µM (inactive) | 30.8 µM (inactive) | > 100 µM (inactive) | > 100 µM (inactive) | 0.142 µM (active) | > 72.1 µM (inactive) | > 38.7 µM (inactive) | 4.54 µM (inactive) | 29.1 µM (inactive) | 48.2 µM (inactive) | > 100 µM (inactive) | 0.687 µM (active)
COC(=O)c1ccccc1C1CN=NC12Cc1cc3c(cc1C2=O)CCC3 (stereo unspecified) | > 100 µM (inactive) |  | 74.5 µM (inactive) | 36.3 µM (inactive) | 87.5 µM (inactive) | > 100 µM (inactive) | 32.1 µM (inactive) | 33.3 µM (inactive) | 32.9 µM (inactive) | 54.2 µM (inactive) | > 100 µM (inactive) | 67.6 µM (inactive) | > 100 µM (inactive) | 69.8 µM (inactive) | 44.6 µM (inactive) | > 100 µM (inactive) | > 100 µM (inactive) | > 100 µM (inactive) | 45.5 µM (inactive) | 56.6 µM (inactive)
